Read-outs that look alike come from different tables or passages of the source.
What was measured:
[1] = cited from earlier work
[2] = system: CTCL cells; assay: Apoptosis by Annexin V-FITC flow cytometry in CTCL cell lines; type: cell-based, Human; details: Annexin V assay measured by flow cytometry; FIGS. 5A-5D
Protocol: Human CTCL cell lines (Hut78, SeAx, and MyLa) were grown in RPMI 1640 medium supplemented with 10% heat-inactivated fetal bovine serume (FBS), glutamine (2 mM) and streptomycin (100 μg/ml) at 37° C., 5% CO2 and 95% humidity.
Romidepsin was used in a concentration ranging from 0.25 nM to 10 μM. 5-azacitidine was used in a concentration ranging from 500 nM to 10 μM. After 24 to 72 hours of the combined drug treatment, the levels of apoptosis and necrosis were measured by flow cytometry with Annexin V-FITC detection kit.

Structure (SMILES)	solubility ([1]; acetone, ethanol and methyl ketone)	solubility ([1]; dimethylsulfoxide (DMSO))	solubility ([1]; ethanol/water (50/50), propylene glycol and polyethylene glycol)	solubility ([1]; water, water-saturated octanol, 5% dextrose in water, N-methyl-2-pyrrolidone, normal saline and 5% Tween 80 in water)	apoptosis [2] [%]
Nc1ncn([C@@H]2O[C@H](CO)[C@@H](O)[C@H]2O)c(=O)n1 [5-azacitidine, 4-amino-1-β-D-ribofuranozyl-s-triazin-2(1H)-one]	insoluble	soluble	slightly soluble	sparingly soluble	21.4
C/C=C1\NC(=O)[C@H]2CSSCC/C=C/[C@H](CC(=O)N[C@H](C(C)C)C(=O)N2)OC(=O)[C@H](C(C)C)NC1=O [romidepsin, (1S,4S,7Z,10S,16E,21R)-7-ethylidene-4,2′-bis(1-methylethyl)-2-oxa-12,13-dithia-5,8,20,23-tetrazabicyclo[8.7.6]tricos-16-ene-3,6,9,19,22-pentone]	–	–	–	–	18.8

Reference: patent US20130085115A1, “COMBINATION THERAPY FOR LYMPHOMA” (Celgene Corporation, priority 2011, published 2013)
